The source of these data is patent US20020013342A1, “Treatment of central nervous system disorders with selective estrogen receptor modulators” (priority 1997, published 2002).

Molecules are shown by their SMILES. Where a name gives a salt, the structure may show the parent alone.

System in the first data set: not listed separately
Briefly: HPLC/UV analysis of liver and cerebral cortex homogenates for parent drug, primary metabolite and glucuronide conjugates. To be noted: cerebral cortex, eight hours after dosing. Type of data set: in vivo, Female Fischer 344 rats. The method, then: A liver and cerebral cortex homogenate were analyzed by HPLC and UV detection at 315 nm to determine if the radioactivity in these tissues was actually due to the drug initially dosed, to the primary metabolite, 6-hydroxy-2-(4-hydroxyphenyl)-3-[4-(piperidinoethoxy)phenoxy]-benzo[b]thiophene, or there glucuronide conjugates. The cerebral cortex sample was obtained eight hours after dosing and the liver samples were collected at four and eight hours after dosing. The proteins in the homogenate were precipitated with acetonitrile and the supernate was evaporated to dryness. The residue was reconstituted in mobile phase and injected onto a SynChropak SCD-100 column with the initial mobile phase composed of […]. (v/v/v). The retention times of the peaks from the homogenate were compared with those obtained from authentic samples of 6-hydroxy-2-(4-methoxyphenyl)-3-[4-(piperidinoethoxy)phenoxy]benzo[b]thiophene and its metabolite, 6-hydroxy-2-(4-hydroxyphenyl)-3-[4-(piperidinoethoxy)phenoxy]benzo [b]-thiophene.
Regarding `Oc1ccc(-c2sc3cc(O)ccc3c2Oc2ccc(OCCN3CCCCC3)cc2)cc1` [Example 7, [6-Hydroxy-3-[4-[2-(1-piperidinyl)ethoxy]-phenoxy]-2-(4-hydroxyphenyl)]benzo[b]thiophene], the “peaks corresponding to the glucuronide conjugates in the HPLC chromatogram of the cerebral cortex homogenate” value is “not observed”. The same measure, in the same setting: the result for `COc1ccc(-c2sc3cc(O)ccc3c2Oc2ccc(OCCN3CCCCC3)cc2)cc1` [Example 15, [6-Hydroxy-3-[4-[2-(1-piperidinyl)ethoxy]-phenoxy]-2-(4-methoxyphenyl)]benzo[b]thiophene Hydrochloride Salt] reads “not observed”.

Staying with this data set, now noted: liver samples collected at four and eight hours after dosing.
Regarding `COc1ccc(-c2sc3cc(O)ccc3c2Oc2ccc(OCCN3CCCCC3)cc2)cc1` [Example 15, [6-Hydroxy-3-[4-[2-(1-piperidinyl)ethoxy]-phenoxy]-2-(4-methoxyphenyl)]benzo[b]thiophene Hydrochloride Salt], the “peaks in the HPLC chromatogram of the liver homogenates” value was “peaks whose retention times corresponded to the parent compound and its glucuronide conjugate”.

The next data set relates to gene expression in the hippocampus. Briefly: Differential mRNA display in hippocampi of ovariectomized rats after five weeks of daily treatment. To be noted: 1 mg/kg daily subcutaneous, comparator estradiol benzoate 0.03 mg/kg. It is filed as in vivo, female Sprague-Dawley rats. The protocol:
A commonly employed model of estrogen depletion is the ovariectomized adult rat. An experiment was conducted in ovariectomized rats using differential mRNA display to determine the similarities and/or differences between a representative compound of the present invention, 6-hydroxy-2-(4-methoxyphenyl)-3-[4-(2-piperidinoethoxy)phenoxy]-benzo[b]thiophene, and estrogen at affecting gene expression in various brain regions. Specifically, female Sprague-Dawley rats, 6 weeks of age, were ovariectomized by the vendor. Following one week of acclimation to the laboratory facility, daily subcutaneous injections of estradiol benzoate (0.03 mg/kg) or 6-hydroxy-2-(4-methoxyphenyl)-3-[4-(2-piperidinoethoxy)phenoxy]-benzo[b]thiophene (1 mg/kg), or vehicle (control) were initiated.
After five weeks of daily treatment, animals were sacrificed and their brains removed and hippocampi collected by microdissection. The hippocampi were fast frozen in liquid nitrogen and stored at −70_C. Total RNA was prepared from pooled tissue from the appropriate treatment and control groups and reverse transcribed using a 3′ oligonucleotide primer which selected for specific mRNA (poly-A+) populations. Polymerase chain reactions (PCR) were carried out in a cocktail consisting of: random 5′ oligonucleotides (10 base-pairs in length; total of 150), reaction buffer, Taq polymerase, and a ^32PdTCP. […]
On to `COc1ccc(-c2sc3cc(O)ccc3c2Oc2ccc(OCCN3CCCCC3)cc2)cc1` [Example 14, [6-Hydroxy-3-[4-[2-(1-piperidinyl)ethoxy]-phenoxy]-2-(4-methoxyphenyl)]benzo[b]thiophene], for which the “mRNA display pattern in rat hippocampus compared with that observed for estrogen” value is reported as “parallel pattern of gene activation or inactivation”.

System in a further data set: not given
Experiment: not given
Conditions: not given
In the case of `COc1ccc(-c2sc3cc(OC)ccc3c2Oc2ccc(OCCN3CCCCC3)cc2)cc1` (as salt: hydrochloride) [Example 2, [6-methoxy-3-[4-[2-(1-piperidinyl)ethoxy]-phenoxy]-2-(4-methoxyphenyl)]benzo[b]thiophene hydrochloride salt], the melting point (as a rule, the temperature, or range, at which the solid turns liquid) lay within 216 to 220 °C. In turn, `COc1ccc(-c2sc3cc(OC)ccc3c2Oc2ccc(OCCN3CCCCCC3)cc2)cc1` (as salt: hydrochloride) [Example 4, [6-Methoxy-3-[4-[2-(1-hexamethyleneimino)ethoxy]phenoxy]-2-(4-methoxyphenyl)]benzo[b]thiophene Hydrochloride] gave a melting point of 189 to 192 °C. Still for that read-out and setting: the result for `CCN(CC)CCOc1ccc(Oc2c(-c3ccc(OC)cc3)sc3cc(OC)ccc23)cc1` (as salt: hydrochloride) [Example 5, [6-Methoxy-3-[4-[2-(1-N,N-diethylamino)ethoxy]phenoxy]-2-(4-methoxyphenyl)]benzo[b]thiophene Hydrochloride] reads 196 to 198 °C. Same read-out and setting: for `COc1ccc(-c2sc3cc(OC)ccc3c2Oc2ccc(OCCN3CCOCC3)cc2)cc1` (as salt: hydrochloride) [Example 6, [6-Methoxy-3-[4-[2-(morpholino)ethoxy]-phenoxy]-2-(4-methoxyphenyl)]benzo[b]thiophene Hydrochloride] the value was 208 to 211 °C; for `Oc1ccc(-c2sc3cc(O)ccc3c2Oc2ccc(OCCN3CCOCC3)cc2)cc1` (as salt: hydrochloride) [Example 13, [6-Hydroxy-3-[4-[2-(morpholino)ethoxy]-phenoxy]-2-(4-hydroxyphenyl)]benzo[b]thiophene Hydrochloride], 157 to 162 °C. The compound `COc1ccc2c(Oc3ccc(OCCN4CCCCC4)cc3)c(-c3ccc(O)cc3)sc2c1` (as salt: hydrochloride) [Example 17, [6-methoxy-3-[4-[2-(1-piperidinyl)ethoxy]-phenoxy]-2-(4-hydroxyphenyl)]benzo[b]thiophene Hydrochloride] registered a melting point of 215 to 217 °C.

With `COc1ccc(-c2sc3cc(OC)ccc3c2Oc2ccc(OCCN3CCCCC3)cc2)cc1` (as salt: oxalate) [Example 1, [6-methoxy-3-[4-[2-(1-piperidinyl)ethoxy]-phenoxy]-2-(4-methoxyphenyl)]benzo[b]thiophene Oxalate Salt], the melting point is 197 to 200 °C (dec.). `COc1ccc(-c2sc3cc(OC)ccc3c2Oc2ccc(OCCN3CCCC3)cc2)cc1` [Example 3, [6-Methoxy-3-[4-[2-(1-pyrolodinyl)ethoxy]-phenoxy]-2-(4-methoxyphenyl)]benzo[b]thiophene] registered a melting point of 95 to 98 °C. The same measure, in the same setting: the result for `Oc1ccc(-c2sc3cc(O)ccc3c2Oc2ccc(OCCN3CCCC3)cc2)cc1` [Example 10, [6-Hydroxy-3-[4-[2-(1-pyrolidinyl)ethoxy]-phenoxy]-2-(4-hydroxyphenyl)]benzo[b]thiophene] reads 99 to 113 °C; that for `Oc1ccc(-c2sc3cc(O)ccc3c2Oc2ccc(OCCN3CCCCCC3)cc2)cc1` [Example 11, [6-Hydroxy-3-[4-[2-(1-hexamethyleneimino)ethoxy]phenoxy]-2-(4-hydroxyphenyl)]benzo[b]thiophene], 125 to 130 °C.

Regarding `CCN(CC)CCOc1ccc(Oc2c(-c3ccc(O)cc3)sc3cc(O)ccc23)cc1` [Example 12, [6-Hydroxy-3-[4-[2-(1-N,N-diethylamino)ethoxy]phenoxy]-2-(4-hydroxyphenyl)]benzo[b]thiophene], the melting point fell in the range of 137 to 141 °C. Still for that read-out and setting: the result for `COc1ccc2c(Oc3ccc(OCCN4CCCCC4)cc3)c(-c3ccc(O)cc3)sc2c1` [Example 16, [6-methoxy-3-[4-[2-(1-piperidinyl)ethoxy]phenoxy]-2-(4-hydroxyphenyl)]benzo[b]thiophene] reads 147 to 150 °C.

System in the next data set: not listed separately
Nature of the data set: Distribution of radioactivity among tissues after a single oral dose of 14C-labeled compound in the female F344 rat. Type of data set: in vivo, Female Fischer 344 rats. To be noted: all tissues with the exception of the liver. The method, then:
Female Fischer 344 rats (approximately twelve weeks old) were given a single oral gavage dose of 5 mg/kg (30 mCi/kg) of ^14C-labeled 6-hydroxy-2-(4-methoxyphenyl)-3-[4-(piperidinoethoxy)phenoxy]benzo[b]thiophene hydrochloride in 50% PEG 300/50% water. Blood and tissues were collected from three rats at each time point: just prior to dosing and at 2, 4, 8, and 24 hours after dosing. At each time point, the animals were sacrificed, blood samples were collected and the heparinized blood was centrifuged and the plasma obtained. Following collection of the bloood sample in each case, the animals were perfused with 0.9% saline solution and the brain, pituitary, femurs, ovaries, uterus and liver were surgically removed and placed in separate containers. […]
The radioactivity of each sample was determined by liquid scintillation spectrometry. Plasma was counted directly, while the other tissues were either homogenized, digested, or oxidized prior to liquid scintillation counting. […]
Samples were oxidized on a Packard Model307 Oxidizer and the resulting ^14CO2 trapped for liquid scintillation counting. The radioactivity in each tissue sample was converted to nanogram equivalents per gram of tissue (specific activity=16.3 dpm/ng). The 0-24 hour area under the curve (AUC0-24 hr) was calculated for each sample.
Turning to `COc1ccc(-c2sc3cc(O)ccc3c2Oc2ccc(OCCN3CCCCC3)cc2)cc1` [Example 15, [6-Hydroxy-3-[4-[2-(1-piperidinyl)ethoxy]-phenoxy]-2-(4-methoxyphenyl)]benzo[b]thiophene Hydrochloride Salt], the “time after dosing at which peak levels of radioactive material were reached” value was found to be 8 h.

Still in this data set, the particulars now being: liver.
As to `COc1ccc(-c2sc3cc(O)ccc3c2Oc2ccc(OCCN3CCCCC3)cc2)cc1` [Example 15, [6-Hydroxy-3-[4-[2-(1-piperidinyl)ethoxy]-phenoxy]-2-(4-methoxyphenyl)]benzo[b]thiophene Hydrochloride Salt], the “time after dosing at which peak levels of radioactive material were reached” value amounted to 4 h.
